Assay results published in article PMC10715191, “Exploration of the novel fluoroquinolones with high inhibitory effect against quinolone-resistant DNA gyrase of Salmonella Typhimurium” (Microbiology Spectrum, 2023).
Converted amounts (≈) assume the structure as drawn.

Tests used:
[1] = molecular target: T1, Ser83Phe-Asp87Asn double-mutant S. Typhimurium DNA gyrase (Salmonella typhimurium, UniProt P0A2I3+P37411, D87N/S83F); experiment: Fluoroquinolone-inhibited DNA supercoiling assay, GyrA Ser83Phe-Asp87Asn DNA gyrase; assay type: biochemical; details: for IC50 against double-mutant DNA gyrase relative to WT: ratio IC50 double mutant / WT; for IC50: supercoiling assay, GyrA double mutant Ser83Phe-Asp87Asn, read-out: IC50s ± SD, Ser83Phe-Asp87Asn (converted)
T1 construct: made in house; host or cells: Escherichia coli BL21(DE3)
Source text: (§1) Recombinant DNA gyrase was obtained as separate subunits, GyrA and GyrB. In total, plasmids encoding nine subunits including WT GyrA and GyrB as well as seven GyrA with amino acid substitutions (Ser83Phe, Ser83Ile, Ser83Tyr, Asp87Gly, Asp87Asn, Asp87Tyr, and […]) in the quinolone resistance determining region were constructed as described in our previous study ([38]). These plasmids were introduced into Escherichia coli BL21(DE3) (Merck KGaA, Darmstadt, Germany), and protein expression was induced in the bacterial cells. A transformed E. coli was inoculated into Luria-Bertani broth supplemented with ampicillin (50 mg/L) and incubated at 37°C until the optical density value reached 0.60. Expression of GyrA and GyrB was induced by adding 1 mM isopropyl beta-D-1-thiogalactopyranoside (Wako Pure Chemical Industries Ltd, Osaka, Japan) followed by incubation at 16°C for 40 h (for GyrA), or 18°C for 13 h (for GyrB). To release the expressed protein, E. coli cells were harvested by centrifugation, suspended in a native binding buffer containing complete mini EDTA-free (Roche Applied Science, Mannheim, Germany), and then sonicated at a 30% duty cycle with 10 cycles of 40 s on and 40 s off (Sonifier 250; Branson, Danbury, CT). The recombinant DNA gyrase subunits were purified by column chromatography using Ni-NTA agarose resin (Thermo Fisher Scientific, Inc., Waltham, MA) and dialyzed against DNA gyrase dilution buffer [50 mM Tris-HCl, pH 7.5; 100 mM KCl, 2 mM dithiothreitol (DTT), 1 mM EDTA]. The obtained protein was mixed with glycerol to prevent denaturation and stored in small aliquots at −80°C for future use. The protein purity was assessed by sodium dodecyl sulfate-polyacrylamide gel electrophoresis (SDS-PAGE) (ATTO, Tokyo, Japan) as shown in Fig. 7.
The reaction mixture was incubated at 37°C for 60 min and then the reaction was halted by adding 8 µL of stop solution (5% SDS, 25% glycerol, and 0.25 mg/mL of bromophenol blue) ([45]). Next, 10 µL of each reaction mixture was subjected to gel electrophoresis for 80 min at 50 mA in 1.2% agarose gel in 1×Tris-acetate-EDTA (TAE) buffer. Subsequently, the gel was stained with 0.5 µg/mL of ethidium bromide for 30 min. The presence of supercoiled DNA can be easily distinguished as a separated band under the UV light. The amount of supercoiled DNA was quantified by its intensity using ImageJ, the digital image processing software (https://imagej.nih.gov/ij/download.html).

[2] = molecular target: T2, Ser83Ile mutant S. Typhimurium DNA gyrase (Salmonella typhimurium, UniProt P0A2I3+P37411, S83I); experiment: Fluoroquinolone-inhibited DNA supercoiling assay, GyrA Ser83Ile DNA gyrase; assay type: biochemical; details: read-out: IC50s ± SD, Ser83Ile (converted)
T2 construct: made in house; host or cells: Escherichia coli BL21(DE3)
Source text: as §1, with “The obtained protein was mixed with glycerol to prevent denaturation and stored in small aliquots at −80°C for future use.” left out
(§2) The reaction mixture was incubated at 37°C for 60 min and then the reaction was halted by adding 8 µL of stop solution (5% SDS, 25% glycerol, and 0.25 mg/mL of bromophenol blue) ([45]). […] The amount of supercoiled DNA was quantified by its intensity using ImageJ, the digital image processing software (https://imagej.nih.gov/ij/download.html).

[3] = molecular target: T3, Ser83Phe mutant S. Typhimurium DNA gyrase (Salmonella typhimurium, UniProt P0A2I3+P37411, S83F); experiment: Fluoroquinolone-inhibited DNA supercoiling assay, GyrA Ser83Phe DNA gyrase; assay type: biochemical; details: read-out: IC50s ± SD, Ser83Phe (converted)
T3 construct: made in house; host or cells: Escherichia coli BL21(DE3)
Source text: as §1, with “The obtained protein was mixed with glycerol to prevent denaturation and stored in small aliquots at −80°C for future use.” left out
as §2

[4] = molecular target: T4, Asp87Asn mutant S. Typhimurium DNA gyrase (Salmonella typhimurium, UniProt P0A2I3+P37411, D87N); experiment: Fluoroquinolone-inhibited DNA supercoiling assay, GyrA Asp87Asn DNA gyrase; assay type: biochemical; details: read-out: IC50s ± SD, Ap87Asn (converted)
T4 construct: made in house; host or cells: Escherichia coli BL21(DE3)
Source text: as §1, with “The obtained protein was mixed with glycerol to prevent denaturation and stored in small aliquots at −80°C for future use.” left out
as §2

[5] = molecular target: T5, WT S. Typhimurium DNA gyrase (Salmonella typhimurium, UniProt P0A2I3+P37411); experiment: Fluoroquinolone-mediated DNA cleavage assay, WT DNA gyrase; assay type: biochemical
T5 construct: made in house; host or cells: Escherichia coli BL21(DE3)
Source text: as §1, with “The recombinant DNA gyrase subunits were purified by column chromatography using Ni-NTA agarose resin (Thermo Fisher Scientific, Inc., Waltham, MA) and dialyzed against DNA gyrase dilution buffer [50 mM Tris-HCl, pH 7.5; 100 mM KCl, 2 mM dithiothreitol (DTT), 1 mM EDTA]. The obtained protein was mixed with glycerol to prevent denaturation and stored in small aliquots at −80°C for future use.” left out, “7. […]” for “7.”

[6] = molecular target: T6, Ser83Tyr mutant S. Typhimurium DNA gyrase (Salmonella typhimurium, UniProt P0A2I3+P37411, S83Y); experiment: Fluoroquinolone-inhibited DNA supercoiling assay, GyrA Ser83Tyr DNA gyrase; assay type: biochemical; details: read-out: IC50s ± SD, Ser83Tyr (converted)
T6 construct: made in house; host or cells: Escherichia coli BL21(DE3)
Source text: as §1, with “The obtained protein was mixed with glycerol to prevent denaturation and stored in small aliquots at −80°C for future use.” left out
as §2

[7] = molecular target: T7, Asp87Tyr mutant S. Typhimurium DNA gyrase (Salmonella typhimurium, UniProt P0A2I3+P37411, D87Y); experiment: Fluoroquinolone-inhibited DNA supercoiling assay, GyrA Asp87Tyr DNA gyrase; assay type: biochemical
T7 construct: made in house; host or cells: Escherichia coli BL21(DE3)
Source text: as §1, with “The obtained protein was mixed with glycerol to prevent denaturation and stored in small aliquots at −80°C for future use.” left out
as §2

[8] = molecular target: T8, GryA-Ser83Ile S. Typhimurium DNA gyrase (Salmonella typhimurium, UniProt P0A2I3+P37411, S83I); experiment: Fluoroquinolone-mediated DNA cleavage assay, GyrA Ser83Ile DNA gyrase; assay type: biochemical
T8 construct: made in house; host or cells: Escherichia coli BL21(DE3)
Source text: as §1, with “The recombinant DNA gyrase subunits were purified by column chromatography using Ni-NTA agarose resin (Thermo Fisher Scientific, Inc., Waltham, MA) and dialyzed against DNA gyrase dilution buffer [50 mM Tris-HCl, pH 7.5; 100 mM KCl, 2 mM dithiothreitol (DTT), 1 mM EDTA]. The obtained protein was mixed with glycerol to prevent denaturation and stored in small aliquots at −80°C for future use.” left out, “7. […]” for “7.”

[9] = molecular target: T5, WT S. Typhimurium DNA gyrase; experiment: Fluoroquinolone-inhibited DNA supercoiling assay, WT DNA gyrase; assay type: biochemical; details: read-out: IC50s ± SD, WT (converted)
Source text: as §1, with “The obtained protein was mixed with glycerol to prevent denaturation and stored in small aliquots at −80°C for future use.” left out
as §2

[10] = test system: S. Typhimurium NBRC 13245; experiment: microbe, parasite or virus in culture; assay type: cell-based, Salmonella Typhimurium; details: micro-broth dilution, 37°C, 16 h; for MIC: Salmonella enterica, read-out: MIC ± SD, S. Typhimurium
Method: (§3) A suspension containing approximately 5 × 10^5 CFU/mL of each Salmonella strain was transferred into 96-well plate containing serially diluted fluoroquinolones and incubated at 37°C for 16 h.

[11] = test system: S. Enteritidis NBRC 3313; experiment: microbe, parasite or virus in culture; assay type: cell-based, Salmonella Enteritidis; details: micro-broth dilution, 37°C, 16 h; for MIC: Salmonella enterica, read-out: MIC ± SD, S. Enteritidis
Method: as §3

[12] = molecular target: T9, Asp87Gly mutant S. Typhimurium DNA gyrase (Salmonella typhimurium, UniProt P0A2I3+P37411, D87G); experiment: Fluoroquinolone-inhibited DNA supercoiling assay, GyrA Asp87Gly DNA gyrase; assay type: biochemical
T9 construct: made in house; host or cells: Escherichia coli BL21(DE3)
Source text: as §1, with “The obtained protein was mixed with glycerol to prevent denaturation and stored in small aliquots at −80°C for future use.” left out
as §2

T9 sequence (P37411 whole entry D87G, one chain of several): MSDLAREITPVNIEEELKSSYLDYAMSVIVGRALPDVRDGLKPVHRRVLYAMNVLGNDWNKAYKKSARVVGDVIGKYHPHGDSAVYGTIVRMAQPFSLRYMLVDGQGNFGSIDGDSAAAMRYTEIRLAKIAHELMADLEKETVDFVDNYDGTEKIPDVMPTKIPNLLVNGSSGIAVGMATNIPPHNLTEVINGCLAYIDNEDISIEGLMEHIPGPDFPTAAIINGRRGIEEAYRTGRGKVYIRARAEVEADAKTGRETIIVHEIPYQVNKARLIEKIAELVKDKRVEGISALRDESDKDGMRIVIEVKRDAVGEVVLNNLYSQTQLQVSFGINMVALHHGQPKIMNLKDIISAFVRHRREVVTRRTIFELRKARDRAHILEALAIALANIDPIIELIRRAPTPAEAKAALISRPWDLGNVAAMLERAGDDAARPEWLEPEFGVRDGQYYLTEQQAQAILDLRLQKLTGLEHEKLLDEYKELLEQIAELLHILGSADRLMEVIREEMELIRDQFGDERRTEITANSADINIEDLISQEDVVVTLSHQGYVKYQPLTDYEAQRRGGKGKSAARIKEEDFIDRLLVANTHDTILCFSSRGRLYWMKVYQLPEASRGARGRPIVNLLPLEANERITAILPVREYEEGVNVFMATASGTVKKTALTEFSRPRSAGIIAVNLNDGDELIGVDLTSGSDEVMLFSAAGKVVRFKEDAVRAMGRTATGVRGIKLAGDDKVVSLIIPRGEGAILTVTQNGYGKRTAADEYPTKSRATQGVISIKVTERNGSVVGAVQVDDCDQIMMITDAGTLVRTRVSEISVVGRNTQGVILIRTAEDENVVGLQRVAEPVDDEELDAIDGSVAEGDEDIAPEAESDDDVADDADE
T1 sequence (P37411 whole entry S83F/D87N, one chain of several): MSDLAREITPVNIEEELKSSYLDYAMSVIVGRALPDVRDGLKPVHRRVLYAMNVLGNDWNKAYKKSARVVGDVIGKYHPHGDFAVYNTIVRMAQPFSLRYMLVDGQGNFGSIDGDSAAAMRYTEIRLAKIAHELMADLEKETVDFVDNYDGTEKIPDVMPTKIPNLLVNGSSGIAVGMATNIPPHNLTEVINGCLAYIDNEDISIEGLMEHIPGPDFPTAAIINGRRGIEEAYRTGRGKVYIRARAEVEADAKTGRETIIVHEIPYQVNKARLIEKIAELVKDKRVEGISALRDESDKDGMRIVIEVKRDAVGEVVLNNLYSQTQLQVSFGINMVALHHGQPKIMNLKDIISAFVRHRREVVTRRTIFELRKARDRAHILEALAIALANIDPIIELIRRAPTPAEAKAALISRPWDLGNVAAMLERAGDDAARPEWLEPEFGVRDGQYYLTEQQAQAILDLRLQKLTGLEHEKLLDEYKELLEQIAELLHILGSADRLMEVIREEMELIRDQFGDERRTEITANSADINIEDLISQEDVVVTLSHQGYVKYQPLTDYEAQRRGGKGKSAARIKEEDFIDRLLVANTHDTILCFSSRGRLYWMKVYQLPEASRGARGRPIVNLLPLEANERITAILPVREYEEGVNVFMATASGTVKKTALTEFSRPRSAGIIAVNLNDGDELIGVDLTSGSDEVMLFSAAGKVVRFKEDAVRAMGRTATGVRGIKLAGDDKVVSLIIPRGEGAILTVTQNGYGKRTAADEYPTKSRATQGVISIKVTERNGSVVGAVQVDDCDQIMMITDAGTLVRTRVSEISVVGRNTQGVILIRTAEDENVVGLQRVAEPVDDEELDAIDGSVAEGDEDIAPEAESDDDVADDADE
T4 sequence (P37411 whole entry D87N, one chain of several): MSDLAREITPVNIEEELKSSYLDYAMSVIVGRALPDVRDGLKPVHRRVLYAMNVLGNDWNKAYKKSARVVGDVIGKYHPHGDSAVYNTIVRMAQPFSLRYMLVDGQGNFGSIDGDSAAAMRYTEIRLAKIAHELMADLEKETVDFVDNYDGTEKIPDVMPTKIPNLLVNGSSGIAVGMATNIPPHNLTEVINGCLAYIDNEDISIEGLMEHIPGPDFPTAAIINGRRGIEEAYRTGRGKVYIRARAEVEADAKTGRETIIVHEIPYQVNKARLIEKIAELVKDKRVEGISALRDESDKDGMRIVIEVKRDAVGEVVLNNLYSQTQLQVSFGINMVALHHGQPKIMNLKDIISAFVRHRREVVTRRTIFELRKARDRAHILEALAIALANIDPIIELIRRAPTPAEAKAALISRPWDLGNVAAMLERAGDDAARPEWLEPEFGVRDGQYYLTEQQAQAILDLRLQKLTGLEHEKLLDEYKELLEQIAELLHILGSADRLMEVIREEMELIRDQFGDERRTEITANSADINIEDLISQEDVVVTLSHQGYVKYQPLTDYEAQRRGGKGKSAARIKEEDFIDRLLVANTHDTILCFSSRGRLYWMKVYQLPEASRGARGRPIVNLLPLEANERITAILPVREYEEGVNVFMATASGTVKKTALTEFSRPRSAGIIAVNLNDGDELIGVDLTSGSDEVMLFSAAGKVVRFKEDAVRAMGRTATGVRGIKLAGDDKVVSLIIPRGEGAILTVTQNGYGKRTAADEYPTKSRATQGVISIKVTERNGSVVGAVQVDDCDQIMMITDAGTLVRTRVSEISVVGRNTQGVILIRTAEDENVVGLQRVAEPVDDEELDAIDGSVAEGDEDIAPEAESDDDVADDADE
T3 sequence (P37411 whole entry S83F, one chain of several): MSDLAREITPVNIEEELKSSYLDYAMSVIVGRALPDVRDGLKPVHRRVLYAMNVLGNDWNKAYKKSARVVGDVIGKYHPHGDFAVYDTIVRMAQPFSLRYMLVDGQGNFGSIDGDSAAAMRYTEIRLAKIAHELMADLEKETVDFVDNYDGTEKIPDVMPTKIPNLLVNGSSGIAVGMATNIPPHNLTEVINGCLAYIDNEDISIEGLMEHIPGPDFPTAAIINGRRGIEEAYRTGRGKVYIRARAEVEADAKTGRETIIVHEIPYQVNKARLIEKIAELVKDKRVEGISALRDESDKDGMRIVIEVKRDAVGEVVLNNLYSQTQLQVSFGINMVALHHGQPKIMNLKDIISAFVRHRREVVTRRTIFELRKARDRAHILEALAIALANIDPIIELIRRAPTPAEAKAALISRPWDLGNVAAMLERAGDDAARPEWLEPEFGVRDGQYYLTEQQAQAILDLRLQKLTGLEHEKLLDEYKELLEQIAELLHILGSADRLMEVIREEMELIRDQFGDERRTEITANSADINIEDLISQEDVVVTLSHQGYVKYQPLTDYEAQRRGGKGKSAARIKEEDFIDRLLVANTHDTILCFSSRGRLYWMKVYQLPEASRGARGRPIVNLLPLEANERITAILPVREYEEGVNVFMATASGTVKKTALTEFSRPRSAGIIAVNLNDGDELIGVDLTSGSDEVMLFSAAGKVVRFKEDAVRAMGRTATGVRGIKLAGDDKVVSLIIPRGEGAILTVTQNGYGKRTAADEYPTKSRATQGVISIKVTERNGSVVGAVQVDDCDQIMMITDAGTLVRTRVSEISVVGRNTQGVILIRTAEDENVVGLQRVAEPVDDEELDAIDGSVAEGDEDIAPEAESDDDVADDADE
T2 sequence (P37411 whole entry S83I, one chain of several): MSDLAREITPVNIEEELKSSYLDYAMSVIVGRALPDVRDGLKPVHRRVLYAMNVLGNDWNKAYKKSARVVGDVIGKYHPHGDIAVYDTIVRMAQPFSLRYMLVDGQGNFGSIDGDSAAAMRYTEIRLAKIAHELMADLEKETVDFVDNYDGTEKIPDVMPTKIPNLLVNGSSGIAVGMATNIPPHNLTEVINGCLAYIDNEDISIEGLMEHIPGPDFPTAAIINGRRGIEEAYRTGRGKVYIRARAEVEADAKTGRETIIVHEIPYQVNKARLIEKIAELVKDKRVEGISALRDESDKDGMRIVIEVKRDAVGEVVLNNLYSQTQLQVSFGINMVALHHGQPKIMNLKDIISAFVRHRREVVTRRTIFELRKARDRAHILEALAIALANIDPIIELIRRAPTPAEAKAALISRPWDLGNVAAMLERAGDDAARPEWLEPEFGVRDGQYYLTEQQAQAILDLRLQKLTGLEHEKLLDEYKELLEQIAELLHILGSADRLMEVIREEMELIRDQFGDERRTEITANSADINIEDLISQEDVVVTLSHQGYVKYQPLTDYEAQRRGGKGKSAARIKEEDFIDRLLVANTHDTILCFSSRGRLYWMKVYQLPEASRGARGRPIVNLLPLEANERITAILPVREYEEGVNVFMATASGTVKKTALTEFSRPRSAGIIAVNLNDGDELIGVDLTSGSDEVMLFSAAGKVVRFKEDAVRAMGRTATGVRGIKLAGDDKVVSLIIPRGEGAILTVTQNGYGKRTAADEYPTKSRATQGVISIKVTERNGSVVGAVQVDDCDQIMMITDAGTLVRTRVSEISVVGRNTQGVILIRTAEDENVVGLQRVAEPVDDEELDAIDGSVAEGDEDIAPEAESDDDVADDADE

Structure (SMILES)	IC50 against double-mutant DNA gyrase relative to WT [1]	IC50 [1]	IC50 [2]	IC50 [3]	IC50 [4]	CC25s, WT (concentration that induces 25% of maximum DNA cleavage) [5]	IC50 [6]	IC50 [7]	CC25s, Ser83Ile (concentration that induces 25% of maximum DNA cleavage) [8]	IC50 [9]	MIC [10]	MIC ± SD, S. Typhimurium [10]	MIC [11]	MIC ± SD, S. Enteritidis [11]	IC50 [12]
Nc1nc(-n2cc(C(=O)O)c(=O)c3cc(F)c(N4CC(O)C4)c(Cl)c32)c(F)cc1F [WQ-3034]	59 fold	2680 nM	1910 nM	59 nM	1020 nM	0.16 µg/mL	495 nM	68.1 nM	0.58 µg/mL	45.4 nM	0.08 µg/mL (≈ 0.182 µM)	0.08 µg/mL (≈ 0.182 µM)	0.016 µg/mL (≈ 0.0363 µM)	0.16 µg/mL (≈ 0.363 µM)	54.5 nM
Cc1c(N2CC(O)C2)c(F)cc2c(=O)c(C(=O)O)cn(-c3nc(N)c(F)cc3F)c12 [WQ-3154]	70 fold	4310 nM	2750 nM	71.4 nM	2080 nM	–	592 nM	80.9 nM	–	61.9 nM	0.08 µg/mL (≈ 0.19 µM)	0.08 µg/mL (≈ 0.19 µM)	0.08 µg/mL (≈ 0.19 µM)	0.08 µg/mL (≈ 0.19 µM)	83.3 nM
Cc1c(N2CC(NC(C)C)C2)c(F)cc2c(=O)c(C(=O)O)cn(-c3nc(N)c(F)cc3F)c12 [WQ-3810]	110 fold	7910 nM	2510 nM	113 nM	1290 nM	–	897 nM	71.5 nM	–	71.5 nM	0.04 µg/mL (≈ 0.0867 µM)	0.04 µg/mL (≈ 0.0867 µM)	0.04 µg/mL (≈ 0.0867 µM)	0.04 µg/mL (≈ 0.0867 µM)	69.3 nM
